Results taken from patent US20250082605A1 (priority 2016, published 2025).

Columns and labels:
C fiber afferents = test: Staining of the dorsal horn of the spinal cord at T2 for TRPV1, Substance P and IB4; assay type: in vivo, rat
Description: (§1) For epidural application of RTX, a small midline incision was made in the region of the T13-L1 thoracic vertebrae. Following dissection of the superficial muscles, two small holes (approximately 2 mm by 2 mm) were made in the left and right sides of the T13 vertebra. A polyethylene catheter (PE-10) was inserted into the […] via the left hole and gently advanced about 5.5-6 cm to the left T1 level at which the first injection (6 μg/mL, 10 μL) was made at a very slow speed to minimize the diffusion of RTX. Then the catheter was pulled back about 0.5 cm to left T2, T3, and T4, respectively, to perform serial injections (10 μL each) in each segment. Then the catheter was withdrawn and the same injection was repeated on the right side. A silicone gel was used to seal the hole in the T13 vertebra. The skin overlying the muscle was closed with a 3-0 polypropylene suture. Simple interrupted sutures were used to close the skin.
Neurons in the dorsal horn of the spinal cord that express SP were ablated by RTX. IB4 is an indicator of small diameter afferent nerves and SP is an indicator of neuroinflammation.

[1] = test system: rats with induced chronic heart failure (CHF); test: Cardiac function in rats with induced chronic heart failure; assay type: in vivo, Sprague-Dawley rats
Description: Both significance measures were at the P<0.05 level.
(§2) The following Examples 1 through 9 discuss data from rats with induced CHF. The Examples show many improved indicators associated with RTX treatment in CHF subjects. The rat models provide for comparison of epidural administration of RTX against epicardial administration of RTX and against various controls. For the epicardial data, RTX was administered directly to the epicardium by swab during open surgery contemporaneously with induced myocardial infarction (coronary artery ligation).
as §1
The experimental data included: body weight, heart weight, the ratio of heart weight to body weight (HW/BW), the ratio of wet lung weight to body weight (WLW/BW), the left ventricle end systolic pressure (LVESP), the left ventricle end diastolic pressure (LVEDP), maximum first derivative of left ventricular pressure (dp/dtmax), the minimum first derivative of left ventricular pressure (dp/dtmin), and infarct size. […] Both significance measures were at the P<0.05 level. […] The columns titled “Sham+vehicle” and “Sham+RTX” provide a comparison for sham rats without induced chronic heart failure, and without and with, respectively, epidural RTX treatment.
The experimental data included: body weight, heart weight, the ratio of heart weight to body weight (HW/BW), the ratio of wet lung weight to body weight (WLW/BW), mean arterial pressure (MAP), the left ventricle end diastolic pressure (LVEDP), heart rate, the maximum first derivative of left ventricular pressure (dp/dtmax), the minimum first derivative of left ventricular pressure (dp/dtmin), and infarct size. […] Both significance measures were at the P<0.05 level.

[2] = test system: established hypertensive rat model; test: MAP and heart rate in established hypertensive rats after lumbar (L2-L5) RTX administration; assay type: in vivo
Description: Blood pressure measurements are 8 hours average per day.
Example 12 describes an experiment in which RTX administration was made to the lumbar region of a rat population (L2-L5).
Blood pressure continued to increase above the pre-injection baseline level by the end of the study period.

rats with induced CHF [3] = test: End-systolic and end diastolic pressure volume relationship in CHF rats; assay type: in vivo, rat
Description: In each case, administration of vehicle or RTX and vehicle was epidural.
(§3) In each case, administration of vehicle or RTX and vehicle was epidural. […] Both significance measures were at the P<0.05 level.
as §2, §1
In each case, administration of vehicle or RTX and vehicle was epidural. […] CHF corresponds to a reduction in ESPVR, with appeared unaffected by epidural RTX.

[4] = test system: cardiac sympathetic afferent reflex (CSAR); test: Response to activation of the CSAR (MAP, RSNA) over 26 weeks after epidural or epicardial RTX; assay type: in vivo, rat
Description: as §2, §1
FIGS. 3A-4B show experimental results for a rat study in accordance with an embodiment of the present application.

rats with induced CHF [5] = test: Cardiac and renal sympathetic nerve activity (CSNA, RSNA) in CHF rats; assay type: in vivo, rat; conditions: for cardiac sympathetic nerve activity (CSNA): CHF
Description: as §3, §2, §1
In each case, administration of vehicle or RTX plus vehicle was epidural. […] Both significance measures were at the P<0.05 level.

hypertensive rat = conditions: in vivo
rats with induced CHF [6] = test: Long-term survival of rats with induced CHF over 28 weeks; assay type: in vivo, rat
Description: as §2, §1
FIG. 7 depicts the survival rate of rats with induced chronic heart failure with and without RTX treatment. In FIG. 7A, the treatment was epicardial. In FIG. 7B the treatment was epidural. […] In particular, without RTX treatment, seven of ten rats died during the 28-week period. But only two of nine rats with RTX treatment died during the same period.

TRPV1 afferents = test: Immunofluorescence study for TRPV1 afferents after L2-L5 RTX administration; assay type: in vivo, rat
Description: Additionally, an immunofluorescence study for TRPV1 afferents was made following administration at the L2-L5 levels. […] Within the T1-T5 levels, no reduction in TRPV1 afferents was shown following the L2-L5 injection. Within the heart, TRPV1 fluorescence remained on the surfaces of the myocardium and within the cardiac tissue.

[7] = epidural RTX at T1-T4 DRG levels
[8] = CHF + epidural RTX vs CHF + vehicle, P<0.05
[9] = epidural RTX vs vehicle, weeks 1, 5-6, 9-11, 24-26, FIG. 3B

**Q.** With `C=C(C)[C@]12C[C@@H](C)[C@@]34O[C@](Cc5ccccc5)(O[C@@H]1[C@@H]3C=C(COC(=O)Cc1ccc(O)c(OC)c1)C[C@]1(O)C(=O)C(C)=C[C@@H]41)O2` [RTX, resiniferatoxin] as the molecule, how does the “expression of TRPV1 protein” value (C fiber afferents; dorsal horn at T2, RTX vs control, FIG. 4) read?
**A.** The value was “reduced expression”.

**Q.** And the “ablation of SP-containing C fiber afferents (peptidergic) projecting to the dorsal horn” value (C fiber afferents; [7])?
**A.** The value was “ablated almost all”.

**Q.** What about the “ablation of isolectin B4 (IB4)-positive C fiber afferents (non-peptidergic) projecting to the dorsal horn” value (C fiber afferents; [7]) of the same molecule?
**A.** The value was “a large portion”.

**Q.** And the “left ventricle end diastolic pressure, increase over sham” value ([1]; CHF + epidural RTX (CHF + vehicle: 380%))?
**A.** The value was 60%.

**Q.** What about the “infarct size, difference” value ([1]; CHF + epidural RTX vs CHF + vehicle) of the same molecule?
**A.** The value was “not being statistically significant”.

**Q.** What about the heart weight [1, 8] of the same molecule?
**A.** The heart weight was “statistically significantly better”.

**Q.** And the “heart weight as a percentage of body weight” value [1, 8]?
**A.** The value was “statistically significantly better”.

**Q.** What about the “left ventricle end diastolic pressure” value [1, 8] of the same molecule?
**A.** The value was “statistically significantly better”.

**Q.** What about the “minimum first derivative of left ventricular pressure (dp/dtmin)” value [1, 8] of the same molecule?
**A.** Its value is “statistically significantly better”.

**Q.** And the “wet lung weight as a percentage of body weight” value [1, 8]?
**A.** Its value is “statistically significantly better”.

**Q.** What about the “cardiac function results, epidural versus epicardial administration” value ([1]; FIG. 5 column D vs FIG. 6 column H) of the same molecule?
**A.** The value was “comparable to the results achieved by epicardial administration, or are in some cases better”.

**Q.** What about the “heart rate following RTX injection” value ([2]; RTX L2-L5) of the same molecule?
**A.** The value was “increase in heart rate”.

**Q.** What about the “time over which heart rate increase subsides” value ([2]; RTX L2-L5, after injection) of the same molecule?
**A.** The value was 2 to 10 days.

**Q.** What about the “time at which MAP returned to the pre-injection baseline” value ([2]; RTX L2-L5, after treatment) of the same molecule?
**A.** Its value is 15 to 20 days.

**Q.** What about the “MAP following lumbar injection” value ([2]; RTX L2-L5, established hypertensive rats) of the same molecule?
**A.** Its value is “reduced immediately”.

**Q.** What about the “sustained treatment of hypertension” value ([2]; RTX to lumbar region L2-L5) of the same molecule?
**A.** Its value is “does not achieve the sustained treatment of hypertension”.

**Q.** What about the “end diastolic pressure volume relationship (EDPVR), difference” value (rats with induced CHF [3]; CHF + epidural RTX vs population without CHF) of the same molecule?
**A.** The value was “not statistically significant”.

**Q.** And the “end diastolic pressure volume relationship (EDPVR)” value (rats with induced CHF [3]; CHF + epidural RTX vs untreated CHF)?
**A.** The value was “statistically significantly less”.

**Q.** What about the “end-systolic pressure volume relationship (ESPVR), CHF-related reduction” value (rats with induced CHF [3]; epidural RTX) of the same molecule?
**A.** Its value is “unaffected”.

**Q.** And the “duration of cardiac sympathetic afferent ablation” value ([4]; epicardial RTX administration)?
**A.** Its value is 3-4 months.

**Q.** And the “mean arterial pressure (MAP) response to activation of the CSAR” value [4, 9]?
**A.** Its value is “substantial decrease”.

**Q.** What about the “renal sympathetic nerve activity (RSNA) response to activation of the CSAR” value [4, 9] of the same molecule?
**A.** The value was “substantial decrease”.

**Q.** And the “CHF-induced increase in basal cardiac sympathetic tone (CSNA and RSNA)” value (rats with induced CHF [5]; CHF + epidural RTX)?
**A.** Its value is “not exhibited”.

**Q.** What about the “basal cardiac sympathetic tone, difference” value (rats with induced CHF [5]; CHF + epidural RTX vs non-CHF population) of the same molecule?
**A.** The value was “not statistically significant”.

**Q.** What about the “cardiac sympathetic nerve activity (CSNA)” value (rats with induced CHF [5]; epicardial RTX vs untreated CHF) of the same molecule?
**A.** Its value is “substantially reduced”.

**Q.** And the “cardiac sympathetic nerve activity (CSNA)” value (rats with induced CHF [5]; epidural RTX vs epicardial RTX)?
**A.** The value was “substantially lower”.

**Q.** And the “cardiac sympathetic nerve activity (CSNA)” value (rats with induced CHF [5]; epidural RTX vs untreated CHF)?
**A.** The value was “substantially reduced”.

**Q.** And the “ABP, MAP and heart rate following injection” value (hypertensive rat)?
**A.** The value was “substantial short term increases”.

**Q.** And the “average short-term increase in MAP over baseline” value (hypertensive rat)?
**A.** Its value is “about 30 mmHg”.

**Q.** What about the “duration of transient increase in blood pressure, heart rate, or both” value (hypertensive rat) of the same molecule?
**A.** Its value is “about five or ten”.

**Q.** And the “survival improvement, epidural versus epicardial treatment” value (rats with induced CHF [6]; 28 weeks)?
**A.** The value was “roughly comparable improvement”.

**Q.** And the “rats that died during the 28-week period” value (rats with induced CHF [6]; epidural RTX at T1-T4, n=9 (without RTX seven of ten))?
**A.** Its value is “two of nine”.

**Q.** And the long-term survival rate (rats with induced CHF [6]; epidural RTX vs no RTX, 28 weeks)?
**A.** The long-term survival rate was “significantly higher”.

**Q.** What about the “TRPV1 afferents in DRG neurons, L2-L5 levels” value (TRPV1 afferents) of the same molecule?
**A.** Its value is “elimination of most TRPV1 afferents”.

**Q.** And the “TRPV1 afferents, L1 level” value (TRPV1 afferents)?
**A.** Its value is “many TRPV1 afferents remained”.

**Q.** And the “TRPV1 afferents, T1-T5 levels” value (TRPV1 afferents)?
**A.** The value was “no reduction”.

**Q.** And the “TRPV1 fluorescence in the heart (surfaces of the myocardium and cardiac tissue)” value (TRPV1 afferents)?
**A.** The value was “remained”.
